Assay: xn = mol fraction of the nth substance listed
Details: 100 kPa, Liquid; for viscosity: Concentric cylinders viscometry; for mass density: Vibrating tube method

CCCCCCCC(=O)OCC [ethyl octanoate] + CC(C)CCO
Details | mass density [kg/m3] | viscosity [mPa·s]
288.15 K, x1 = 0.1 | 822.09 | 3.559
288.15 K, x1 = 0.2001 | 830.4 | 2.806
288.15 K, x1 = 0.3 | 837.58 | 2.382
288.15 K, x1 = 0.4 | 843.9 | 2.117
288.15 K, x1 = 0.5001 | 849.54 | 1.951
288.15 K, x1 = 0.5999 | 854.63 | 1.856
288.15 K, x1 = 0.7003 | 859.29 | 1.759
288.15 K, x1 = 0.7998 | 863.5 | 1.716
288.15 K, x1 = 0.9001 | 867.37 | 1.687
288.15 K, x1 = 1 | 870.88 | 1.686
293.15 K, x1 = 0.1 | 818.23 | 3.06
293.15 K, x1 = 0.2001 | 826.44 | 2.439
293.15 K, x1 = 0.3 | 833.53 | 2.11
293.15 K, x1 = 0.4 | 839.78 | 1.891
293.15 K, x1 = 0.5001 | 845.38 | 1.752
293.15 K, x1 = 0.5999 | 850.42 | 1.673
293.15 K, x1 = 0.7003 | 855.04 | 1.593
293.15 K, x1 = 0.7998 | 859.23 | 1.557
293.15 K, x1 = 0.9001 | 863.07 | 1.534
293.15 K, x1 = 1 | 866.58 | 1.537
298.15 K, x1 = 0.1 | 814.36 | 2.684
298.15 K, x1 = 0.2001 | 822.46 | 2.177
298.15 K, x1 = 0.3 | 829.47 | 1.885
298.15 K, x1 = 0.4 | 835.66 | 1.702
298.15 K, x1 = 0.5001 | 841.2 | 1.586
298.15 K, x1 = 0.5999 | 846.2 | 1.518
298.15 K, x1 = 0.7003 | 850.78 | 1.451
298.15 K, x1 = 0.7998 | 854.94 | 1.422
298.15 K, x1 = 0.9001 | 858.77 | 1.404
298.15 K, x1 = 1 | 862.28 | 1.41
303.15 K, x1 = 0.1 | 810.47 | 2.351
303.15 K, x1 = 0.2001 | 818.46 | 1.936
303.15 K, x1 = 0.3 | 825.39 | 1.693
303.15 K, x1 = 0.4 | 831.52 | 1.537
303.15 K, x1 = 0.5001 | 837.01 | 1.44
303.15 K, x1 = 0.5999 | 841.96 | 1.385
303.15 K, x1 = 0.7003 | 846.52 | 1.327
303.15 K, x1 = 0.7998 | 850.66 | 1.305
303.15 K, x1 = 0.9001 | 854.47 | 1.292
303.15 K, x1 = 1 | 857.98 | 1.298
308.15 K, x1 = 0.1 | 806.56 | 2.077
308.15 K, x1 = 0.2001 | 814.45 | 1.73
308.15 K, x1 = 0.3 | 821.3 | 1.527
308.15 K, x1 = 0.4 | 827.36 | 1.398
308.15 K, x1 = 0.5001 | 832.81 | 1.315
308.15 K, x1 = 0.5999 | 837.72 | 1.267
308.15 K, x1 = 0.7003 | 842.25 | 1.221
308.15 K, x1 = 0.7998 | 846.36 | 1.202
308.15 K, x1 = 0.9001 | 850.16 | 1.195
308.15 K, x1 = 1 | 853.68 | 1.2
313.15 K, x1 = 0.1 | 802.62 | 1.845
313.15 K, x1 = 0.2001 | 810.42 | 1.559
313.15 K, x1 = 0.3 | 817.19 | 1.389
313.15 K, x1 = 0.4 | 823.19 | 1.281
313.15 K, x1 = 0.5001 | 828.58 | 1.211
313.15 K, x1 = 0.5999 | 833.46 | 1.17
313.15 K, x1 = 0.7003 | 837.96 | 1.132
313.15 K, x1 = 0.7998 | 842.05 | 1.116
313.15 K, x1 = 0.9001 | 845.85 | 1.112
313.15 K, x1 = 1 | 849.37 | 1.118
318.15 K, x1 = 0.1 | 798.65 | 1.639
318.15 K, x1 = 0.2001 | 806.35 | 1.401
318.15 K, x1 = 0.3 | 813.06 | 1.258
318.15 K, x1 = 0.4 | 819 | 1.167
318.15 K, x1 = 0.5001 | 824.35 | 1.108
318.15 K, x1 = 0.5999 | 829.19 | 1.074
318.15 K, x1 = 0.7003 | 833.67 | 1.042
318.15 K, x1 = 0.7998 | 837.74 | 1.03
318.15 K, x1 = 0.9001 | 841.53 | 1.028
318.15 K, x1 = 1 | 845.06 | 1.035
323.15 K, x1 = 0.1 | 794.65 | 1.48
323.15 K, x1 = 0.2001 | 802.26 | 1.281
323.15 K, x1 = 0.3 | 808.9 | 1.157
323.15 K, x1 = 0.4 | 814.79 | 1.078
323.15 K, x1 = 0.5001 | 820.1 | 1.028
323.15 K, x1 = 0.5999 | 824.91 | 0.9986
323.15 K, x1 = 0.7003 | 829.36 | 0.9718
323.15 K, x1 = 0.7998 | 833.43 | 0.9628
323.15 K, x1 = 0.9001 | 837.21 | 0.9653
323.15 K, x1 = 1 | 840.74 | 0.9708

Reference: the NIST ThermoML archive (doi:10.1016/j.jct.2016.09.030)
